Usually pEC50 stands for −log10 of the EC50, conventionally taken in molar units.

pEC50: −log10 of the molar value.

The subject of series [1] is Farage, SU-DHL-6, OCI-LY19 cells. Conditions: GRM 100 nM, ADC-1 1 μM; all 3 cell lines.
Series [2] relates to RS4;11 (ALL). The settings on record: read-out: EC50 in vitro cytotoxicity (% cell viability), 5-day compound treatment, FIG. 1.
Series [3] deals with RS4;11 tumors. As to the kind of experiment: ALL subcutaneous xenograft in CB17/SCID mice. The series is classed as in vivo. The settings on record: FIG. 11; fucosylated mAb and ADC-1 used; prednisolone [QD×5]×3; ADC-1 single low dose. The text has this: Food and water were available ad libitum.
Intraperitoneal route of administration was used.
Tumor volume was estimated one to two times weekly.

Consider `C[C@]12C=CC(=O)C=C1[C@@H](F)C[C@H]1[C@@H]3C[C@H]4O[C@@H](c5ccc(Cc6cccc(N)c6)cc5)O[C@@]4(C(=O)CO)[C@@]3(C)C[C@H](O)[C@@]12F` [Compound of Formula IV, (2S,6aS,6bR,7S,8aS,8bS,10R,11aR,12aS,12bS)-10-(4-(3-Aminobenzyl)phenyl)-2,6b-difluoro-7-hydroxy-8b-(2-hydroxyacetyl)-6a,8a-dimethyl-1,2,6a,6b,7,8,8a,8b,11a,12,12a,12b-dodecahydro-4H-naphtho[2′,1′:4,5]indeno[1,2-d][1,3]dioxol-4-one], for which the “Apoptosis (BIM, cleaved caspase-3, cleaved PARP)” value in series [1] is reported as “induced apoptosis”.

As to `C[C@@H]1C[C@H]2[C@@H]3CCC4=CC(=O)C=C[C@]4(C)[C@@]3(F)[C@@H](O)C[C@]2(C)[C@@]1(O)C(=O)CO` [dexamethasone], the pEC50 in series [2] is 8.48.

For `C[C@]12C=CC(=O)C=C1CC[C@@H]1[C@@H]2[C@@H](O)C[C@@]2(C)[C@H]1CC[C@]2(O)C(=O)CO` [prednisolone, reference compound], in series [2], the negative-log EC50 (pEC50) was 7.08. Also, the Anti-tumor activity entry in series [3] is given as “modest anti-tumor activity”.

The values are drawn from patent publication US12478689B2, “Anti-CD19 antibody drug conjugates” (AbbVie Biotherapeutics Inc., priority 2022, dated 2025).
